According to ChEMBL document CHEMBL5230095, “Advances in research of spirodienone and its derivatives: Biological activities and synthesis methods” (Eur J Med Chem, 2020):

test system: SMMC-7721; assay: Antiproliferative activity against human SMMC-7721 cells; assay type: functional, cell-based; settings: not given

Structure (SMILES)	IC50
COC1=C[C@@H]2[C@@H]3Cc4c(CN5CCc6cc(OC)c(OC)c7c6[C@@H]5CC75C=CC(=O)C=C5)cc(OC)c(O)c4[C@]2(CCN3C)CC1=O	17100 µM
COC1=C[C@@]23CCN(C)[C@@H](Cc4c(CN5CCc6cc(OC)c(O)cc6[C@H]5Cc5ccc(O)cc5)cc(OC)c(O)c42)C3=CC1=O	> 40000 µM

test system: K562; assay: Cytotoxicity against human K562 cells; assay type: functional, cell-based; settings: Homo sapiens, K562

Structure (SMILES)	IC50
CCCCCCCCCCCCC/C(O)=C1\C(=O)N(Cc2ccccc2)CC12C=CC(=O)C=C2	1.73 µM
CCCCCCCCCCCCCC(=O)C1C(=O)N(Cc2ccccc2)C12C=CC(=O)C=C2 (centres undefined)	5.47 µM
C#CCCCCCCC(=O)C1C(=O)N(Cc2ccccc2)C12C=CC(=O)C=C2 (centres undefined)	15.3 µM
C#CCCCCCCCCCCCN1C(=O)C(C2(OCC)CCC3(C=CC(=O)C=C3)O2)C12C=CC(=O)C=C2 (stereo in doubt; 30)	0.32 µM

same assay, conditions: k562

Structure (SMILES)	IC50
CCCCCCCCCCCCN1C(=O)C(C2(OC)CCC3(C=CC(=O)C=C3)O2)C12C=CC(=O)C=C2 (stereo in doubt; 28)	0.62 µM
CCCCCCCCCCCCN1C(=O)C(C2(OC)CCC3(C=CC(=O)C=C3)O2)C12C=CC(=O)C=C2 (stereo in doubt; 29)	0.18 µM
C#CCCCCCCCCCCCN1C(=O)C(C2(OCC)CCC3(C=CC(=O)C=C3)O2)C12C=CC(=O)C=C2 (stereo in doubt; 31)	0.36 µM

test system: not listed separately; assay: Inhibition of yeast pre-mRNA splicing; set-up: species or system Saccharomyces cerevisiae; settings: not given

Structure (SMILES)	IC50
O=C1CCC2(C=CC(=O)C(NC(=O)c3ccccc3)=C2)O1 (centres undefined)	600 µM
COC1=CC2(C=CC1=O)CCC(=O)O2 (centres undefined)	3000 µM
Cc1ccc(S(=O)(=O)NC2CC3(C=CC(=O)C(NC(=O)c4ccccc4)=C3)OC2=O)cc1 (centres undefined)	700 µM
CC(=O)NC1=CC2(C=CC1=O)CCC(=O)O2 (centres undefined)	800 µM
CC(=O)NC1=CC2(C=CC1=O)CC(NS(=O)(=O)c1ccc(C)cc1)C(=O)O2 (centres undefined)	1700 µM

test system: not listed separately; assay: Cytotoxicity against MDCK cells; assay type: toxicity, cell-based, Canis lupus familiaris; settings: dog, MDCK cells; read-out: TC50 (the source's name)

Structure (SMILES)	CC50
COC1=CC(=O)c2ccc(=O)oc2[C@]12[C@H](c1c(OC)cc(OC)c3ccc(=O)oc13)[C@H]1[C@H](c3c(OC)cc(OC)c4ccc(=O)oc34)C=C(C)C[C@]1(C)C[C@@H]2C=C(C)C	77.6 µM
CCOC(=O)C1=C[C@@H](OC(CC)CC)[C@H](NC(C)=O)[C@@H](N)C1 [OSELTAMIVIR]	3070 µM
COC1=CC(=O)c2ccc(=O)oc2[C@]12[C@H](C=C(C)C)C[C@]1(C)CC(C)=C[C@H](c3c(OC)cc(OC)c4ccc(=O)oc34)[C@H]1[C@@H]2c1c(OC)cc(OC)c2ccc(=O)oc12	57.7 µM
NC(=O)c1ncn([C@@H]2O[C@H](CO)[C@@H](O)[C@H]2O)n1 [RIBAVIRIN]	4770 µM
COC1=CC(=O)c2ccc(=O)oc2[C@@]12[C@H](c1c(OC)cc(OC)c3ccc(=O)oc13)[C@H]1[C@H](c3c(OC)cc(OC)c4ccc(=O)oc34)C=C(C)C[C@]1(C)C[C@@H]2C=C(C)C	19.2 µM

test system: not listed separately; assay: in vitro; settings: dog, MDCK cells, TI
Description: Therapeutic index, ratio of TC50 for MDCK cells to IC50 for antiviral activity against influenza A virus (A/Hanfang/359/95(H3N2))

Structure (SMILES)	selectivity ratio
COC1=CC(=O)c2ccc(=O)oc2[C@]12[C@H](c1c(OC)cc(OC)c3ccc(=O)oc13)[C@H]1[C@H](c3c(OC)cc(OC)c4ccc(=O)oc34)C=C(C)C[C@]1(C)C[C@@H]2C=C(C)C	7.9
CCOC(=O)C1=C[C@@H](OC(CC)CC)[C@H](NC(C)=O)[C@@H](N)C1 [OSELTAMIVIR]	910
COC1=CC(=O)c2ccc(=O)oc2[C@]12[C@H](C=C(C)C)C[C@]1(C)CC(C)=C[C@H](c3c(OC)cc(OC)c4ccc(=O)oc34)[C@H]1[C@@H]2c1c(OC)cc(OC)c2ccc(=O)oc12	3.3
NC(=O)c1ncn([C@@H]2O[C@H](CO)[C@@H](O)[C@H]2O)n1 [RIBAVIRIN]	771
COC1=CC(=O)c2ccc(=O)oc2[C@@]12[C@H](c1c(OC)cc(OC)c3ccc(=O)oc13)[C@H]1[C@H](c3c(OC)cc(OC)c4ccc(=O)oc34)C=C(C)C[C@]1(C)C[C@@H]2C=C(C)C	1.9

test system: SW480; assay: Antiproliferative activity against human SW480 cells; assay type: functional, cell-based; settings: not given

Structure (SMILES)	IC50
COC1=C[C@@H]2[C@@H]3Cc4c(CN5CCc6cc(OC)c(OC)c7c6[C@@H]5CC75C=CC(=O)C=C5)cc(OC)c(O)c4[C@]2(CCN3C)CC1=O	18300 µM
COC1=C[C@@]23CCN(C)[C@@H](Cc4c(CN5CCc6cc(OC)c(O)cc6[C@H]5Cc5ccc(O)cc5)cc(OC)c(O)c42)C3=CC1=O	> 40000 µM

test system: Jurkat; assay: Cytotoxicity against human Jurkat cells; assay type: functional, cell-based; settings: Homo sapiens, Jurkat

Structure (SMILES)	IC50
CCCCCCCCCCCCC/C(O)=C1\C(=O)N(Cc2ccccc2)CC12C=CC(=O)C=C2	1.42 µM
CCCCCCCCCCCCCC(=O)C1C(=O)N(Cc2ccccc2)C12C=CC(=O)C=C2 (centres undefined)	2.88 µM
C#CCCCCCCC(=O)C1C(=O)N(Cc2ccccc2)C12C=CC(=O)C=C2 (centres undefined)	7.4 µM
C#CCCCCCCCCCCCN1C(=O)C(C2(OCC)CCC3(C=CC(=O)C=C3)O2)C12C=CC(=O)C=C2 (stereo in doubt; 30)	0.14 µM

same assay, conditions: jurkat

Structure (SMILES)	IC50
CCCCCCCCCCCCN1C(=O)C(C2(OC)CCC3(C=CC(=O)C=C3)O2)C12C=CC(=O)C=C2 (stereo in doubt; 28)	0.35 µM
CCCCCCCCCCCCN1C(=O)C(C2(OC)CCC3(C=CC(=O)C=C3)O2)C12C=CC(=O)C=C2 (stereo in doubt; 29)	0.06 µM
C#CCCCCCCCCCCCN1C(=O)C(C2(OCC)CCC3(C=CC(=O)C=C3)O2)C12C=CC(=O)C=C2 (stereo in doubt; 31)	0.15 µM

test system: A549; assay: Antiproliferative activity against human A549 cells; assay type: functional, cell-based; settings: not given

Structure (SMILES)	IC50
COC1=C[C@@H]2[C@@H]3Cc4c(CN5CCc6cc(OC)c(OC)c7c6[C@@H]5CC75C=CC(=O)C=C5)cc(OC)c(O)c4[C@]2(CCN3C)CC1=O	18500 µM
COC1=C[C@@]23CCN(C)[C@@H](Cc4c(CN5CCc6cc(OC)c(O)cc6[C@H]5Cc5ccc(O)cc5)cc(OC)c(O)c42)C3=CC1=O	> 40000 µM

test system: Plasmodium falciparum; assay: Antimalarial activity against Plasmodium falciparum 3D7; assay type: functional, organism-based; settings: not given

Structure (SMILES)	IC50
CCCCCCCCCCCCN1C(=O)C(C2(OC)CCC3(C=CC(=O)C=C3)O2)C12C=CC(=O)C=C2 (stereo in doubt; 29)	0.91 µM
C#CCCCCCCCCCCCN1C(=O)C(C2(OCC)CCC3(C=CC(=O)C=C3)O2)C12C=CC(=O)C=C2 (stereo in doubt; 31)	1.41 µM

same assay, conditions: Plasmodium falciparum, 3D7

Structure (SMILES)	IC50
CCCCCCCCCCCCN1C(=O)C(C2(OC)CCC3(C=CC(=O)C=C3)O2)C12C=CC(=O)C=C2 (stereo in doubt; 28)	1.68 µM
CCCCCCCCCCCCC/C(O)=C1\C(=O)N(Cc2ccccc2)CC12C=CC(=O)C=C2	2.29 µM
CCCCCCCCCCCCCC(=O)C1C(=O)N(Cc2ccccc2)C12C=CC(=O)C=C2 (centres undefined)	1.35 µM
C#CCCCCCCC(=O)C1C(=O)N(Cc2ccccc2)C12C=CC(=O)C=C2 (centres undefined)	7.7 µM
C#CCCCCCCCCCCCN1C(=O)C(C2(OCC)CCC3(C=CC(=O)C=C3)O2)C12C=CC(=O)C=C2 (stereo in doubt; 30)	1.72 µM

test system: HL-60; assay: Antiproliferative activity against human HL-60 cells; assay type: functional, cell-based; settings: not given

Structure (SMILES)	IC50
COC1=C[C@@H]2[C@@H]3Cc4c(CN5CCc6cc(OC)c(OC)c7c6[C@@H]5CC75C=CC(=O)C=C5)cc(OC)c(O)c4[C@]2(CCN3C)CC1=O	17400 µM
COC1=C[C@@]23CCN(C)[C@@H](Cc4c(CN5CCc6cc(OC)c(O)cc6[C@H]5Cc5ccc(O)cc5)cc(OC)c(O)c42)C3=CC1=O	> 40000 µM

test system: Influenza A virus; assay: microbe, parasite or virus in culture; settings: H3N2, MDCK
Description: Antiviral activity against influenza A virus (A/Hanfang/359/95(H3N2)) infected in MDCK cells

Structure (SMILES)	IC50
COC1=CC(=O)c2ccc(=O)oc2[C@]12[C@H](c1c(OC)cc(OC)c3ccc(=O)oc13)[C@H]1[C@H](c3c(OC)cc(OC)c4ccc(=O)oc34)C=C(C)C[C@]1(C)C[C@@H]2C=C(C)C	8.62 µM
CCOC(=O)C1=C[C@@H](OC(CC)CC)[C@H](NC(C)=O)[C@@H](N)C1 [OSELTAMIVIR]	3.38 µM
COC1=CC(=O)c2ccc(=O)oc2[C@]12[C@H](C=C(C)C)C[C@]1(C)CC(C)=C[C@H](c3c(OC)cc(OC)c4ccc(=O)oc34)[C@H]1[C@@H]2c1c(OC)cc(OC)c2ccc(=O)oc12	17.5 µM
NC(=O)c1ncn([C@@H]2O[C@H](CO)[C@@H](O)[C@H]2O)n1 [RIBAVIRIN]	6.19 µM
COC1=CC(=O)c2ccc(=O)oc2[C@@]12[C@H](c1c(OC)cc(OC)c3ccc(=O)oc13)[C@H]1[C@H](c3c(OC)cc(OC)c4ccc(=O)oc34)C=C(C)C[C@]1(C)C[C@@H]2C=C(C)C	9.86 µM
